{"source": "ChEMBL document CHEMBL1201862", "about": "“PubChem BioAssay data set” (2004)", "key": {"[1]": {"assay": "intracellular Trypanosoma cruzi inhibitors in host cells – cell-based, plate reader, cherry-pick samples, set 3, dose response (AID 651818);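 also: compounds incubated with infected cells for about four days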", "format": "functional"}, "[2]": {"assay": "growth inhibition of yeast DHODH-expressing 3D7 parasites – SYBR Green, dry powder samples, dose response (AID 1159570);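 also: parasite growth measured after 72 hours of compound exposure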", "format": "functional, cell-based"}, "[3]": {"assay": "growth inhibition of PfATP4-mutant resistant parasites – NITD609-resistant line, SYBR Green, dry powder, dose response (AID 1159571);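 also: parasites synchronized at ring stage by sorbitol before testing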", "format": "functional, cell-based"}, "[4]": {"assay": "Dd2 malaria parasite growth inhibition potency – SYBR Green, dry powder samples, dose response (AID 1159566);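 also: potency for growth inhibition with lower SYBR green DNA signal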", "format": "functional, cell-based"}, "[5]": {"assay": "toxicity to human HepG2 hepatoma cells – cell-based, plate reader, dry powder samples, cytotoxicity control, dose response (AID 1159569);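 also: inhibitor potency with signal falling toward the positive control level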", "format": "functional"}, "[6]": {"assay": "P. falciparum Dd2 growth inhibitors, dose response, SYBR Green, cherry-picked samples (AID 1159567)", "format": "functional, cell-based"}, "[7]": {"assay": "toxicity to human hepatoma HepG2 cells – cell-based, cherry-picked samples, cytotoxicity control, dose response (AID 1159577)", "format": "functional"}, "[8]": {"target": "Estrogen receptor beta (Homo sapiens, UniProt Q92731)", "sequence (Q92731 whole entry)": "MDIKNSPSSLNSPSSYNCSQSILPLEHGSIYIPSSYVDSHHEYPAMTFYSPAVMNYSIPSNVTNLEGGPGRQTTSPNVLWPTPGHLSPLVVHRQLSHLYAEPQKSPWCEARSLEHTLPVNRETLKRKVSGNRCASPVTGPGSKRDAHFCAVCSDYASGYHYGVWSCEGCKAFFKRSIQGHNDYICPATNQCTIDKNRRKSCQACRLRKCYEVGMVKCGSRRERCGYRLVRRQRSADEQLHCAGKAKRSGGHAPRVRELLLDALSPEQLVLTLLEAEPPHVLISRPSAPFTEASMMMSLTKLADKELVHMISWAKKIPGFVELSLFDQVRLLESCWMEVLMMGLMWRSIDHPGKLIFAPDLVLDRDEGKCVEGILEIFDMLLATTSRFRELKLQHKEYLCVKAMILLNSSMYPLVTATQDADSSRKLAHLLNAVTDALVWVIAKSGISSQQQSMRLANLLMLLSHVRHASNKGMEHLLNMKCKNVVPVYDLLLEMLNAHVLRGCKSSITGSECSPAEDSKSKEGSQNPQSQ", "assay": "blockers of SRC-3 recruitment to ERβ – biochemical, ELISA, streptavidin-HRP readout, orthogonal assay, confirmation (AID 1060)"}, "[9]": {"target": "T1, Ubiquitin-conjugating enzyme E2 N (Homo sapiens, UniProt P61088)", "T1 sequence (P61088 whole entry)": "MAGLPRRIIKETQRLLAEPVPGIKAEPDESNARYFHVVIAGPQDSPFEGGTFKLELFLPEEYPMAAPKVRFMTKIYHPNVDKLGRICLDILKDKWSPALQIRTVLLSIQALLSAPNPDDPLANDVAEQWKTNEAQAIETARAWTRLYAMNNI", "format": "functional"}, "[10]": {"target": "T2, DNA repair protein RAD52 homolog (Homo sapiens, UniProt P43351)", "T2 sequence (P43351 whole entry)": "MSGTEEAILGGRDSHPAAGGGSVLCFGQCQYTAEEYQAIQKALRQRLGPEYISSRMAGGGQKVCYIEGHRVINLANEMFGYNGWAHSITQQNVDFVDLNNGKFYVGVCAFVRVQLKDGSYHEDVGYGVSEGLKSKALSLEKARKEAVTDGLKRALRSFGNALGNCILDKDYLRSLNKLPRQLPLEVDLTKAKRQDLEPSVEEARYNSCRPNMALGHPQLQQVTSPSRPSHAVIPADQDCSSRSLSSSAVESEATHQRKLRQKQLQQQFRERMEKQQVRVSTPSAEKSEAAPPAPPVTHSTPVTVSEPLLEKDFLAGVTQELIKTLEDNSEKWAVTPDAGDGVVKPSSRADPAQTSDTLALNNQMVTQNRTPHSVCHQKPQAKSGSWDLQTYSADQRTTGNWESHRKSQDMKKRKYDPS", "format": "functional, biochemical"}, "[11]": {"assay": "cells", "format": "functional"}, "[12]": {"target": "Cytochrome P450 2C9 (Homo sapiens, UniProt P11712)", "sequence (P11712 whole entry)": "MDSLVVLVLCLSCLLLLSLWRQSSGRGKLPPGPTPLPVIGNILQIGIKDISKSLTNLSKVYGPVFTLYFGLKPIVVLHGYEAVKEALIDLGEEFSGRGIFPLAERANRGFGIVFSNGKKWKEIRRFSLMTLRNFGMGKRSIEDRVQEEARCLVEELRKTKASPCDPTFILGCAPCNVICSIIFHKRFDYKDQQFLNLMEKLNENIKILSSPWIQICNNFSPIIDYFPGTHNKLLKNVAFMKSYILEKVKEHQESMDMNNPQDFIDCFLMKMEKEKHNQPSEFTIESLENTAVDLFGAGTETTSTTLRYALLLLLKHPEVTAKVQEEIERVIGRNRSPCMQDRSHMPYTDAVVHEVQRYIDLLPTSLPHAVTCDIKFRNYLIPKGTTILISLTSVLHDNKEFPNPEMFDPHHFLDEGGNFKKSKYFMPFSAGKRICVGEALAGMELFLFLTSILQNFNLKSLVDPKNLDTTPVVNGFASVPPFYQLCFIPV"}, "[13]": {"target": "Cytochrome P450 2C19 (Homo sapiens, UniProt P33261)", "sequence (P33261 whole entry)": "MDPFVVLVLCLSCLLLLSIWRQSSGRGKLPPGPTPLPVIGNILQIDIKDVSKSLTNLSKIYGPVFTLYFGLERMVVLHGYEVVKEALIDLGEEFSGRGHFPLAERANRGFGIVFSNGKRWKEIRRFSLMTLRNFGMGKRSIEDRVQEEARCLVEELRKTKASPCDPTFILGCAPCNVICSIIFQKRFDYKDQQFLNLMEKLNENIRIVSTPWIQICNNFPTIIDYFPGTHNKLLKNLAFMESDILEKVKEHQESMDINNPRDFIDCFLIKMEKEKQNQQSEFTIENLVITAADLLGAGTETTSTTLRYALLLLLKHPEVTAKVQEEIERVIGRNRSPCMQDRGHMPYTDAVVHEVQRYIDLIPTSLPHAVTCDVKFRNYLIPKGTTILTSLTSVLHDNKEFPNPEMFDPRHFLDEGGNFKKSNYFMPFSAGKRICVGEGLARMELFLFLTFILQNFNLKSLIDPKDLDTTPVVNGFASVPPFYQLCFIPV", "assay": "Cytochrome panel assay with activity outcomes. Panel member name: p450-cyp2c19 Compounds with AC50 equal or less than 10 uM are considered active", "format": "functional", "settings": "read-out: AC50"}, "[14]": {"assay": "NIH3T3 cell viability loss – ATP luminescence, mouse fibroblasts, counter-screen, dose response (AID 2010);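 also: cells exposed to compound for about 90 hours before reading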", "format": "functional, cell-based"}, "[15]": {"assay": "Trypanosoma cruzi growth suppression in host cells – NIH3T3 host cells, beta-gal luminescence, confirmation (AID 2044);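 also: luminescent beta-galactosidase reporter signal from transgenic T. cruzi replicating inside host cells; inhibitors lower the luminescence signal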", "format": "functional, cell-based"}, "[16]": {"target": "T3, Microphthalmia-associated transcription factor (Homo sapiens, UniProt O75030)", "T3 sequence (O75030 whole entry)": "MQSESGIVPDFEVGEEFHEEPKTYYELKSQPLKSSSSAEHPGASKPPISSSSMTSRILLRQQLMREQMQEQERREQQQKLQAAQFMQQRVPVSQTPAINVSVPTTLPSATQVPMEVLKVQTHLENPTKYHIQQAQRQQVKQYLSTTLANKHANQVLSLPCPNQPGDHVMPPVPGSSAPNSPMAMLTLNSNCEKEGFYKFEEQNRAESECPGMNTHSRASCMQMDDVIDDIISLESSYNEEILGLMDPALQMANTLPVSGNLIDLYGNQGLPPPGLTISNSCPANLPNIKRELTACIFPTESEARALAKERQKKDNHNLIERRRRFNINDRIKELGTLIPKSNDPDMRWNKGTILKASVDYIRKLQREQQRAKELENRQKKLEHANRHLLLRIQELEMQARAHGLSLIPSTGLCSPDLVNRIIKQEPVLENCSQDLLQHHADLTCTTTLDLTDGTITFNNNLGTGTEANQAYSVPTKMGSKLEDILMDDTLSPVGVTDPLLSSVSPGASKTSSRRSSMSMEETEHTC", "assay": "reducers of TRPM1 reporter luminescence, concentration series – cell-based, SK-MEL-5, cherry-picked, set 3, MITF inhibitor project, dose response (AID 493073);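 also: SK-MEL-5 melanoma cells with luciferase driven by the MITF target TRPM1 promoter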", "format": "functional"}, "[17]": {"target": "Paired box protein Pax-8 (Homo sapiens, UniProt Q06710)", "sequence (Q06710 whole entry)": "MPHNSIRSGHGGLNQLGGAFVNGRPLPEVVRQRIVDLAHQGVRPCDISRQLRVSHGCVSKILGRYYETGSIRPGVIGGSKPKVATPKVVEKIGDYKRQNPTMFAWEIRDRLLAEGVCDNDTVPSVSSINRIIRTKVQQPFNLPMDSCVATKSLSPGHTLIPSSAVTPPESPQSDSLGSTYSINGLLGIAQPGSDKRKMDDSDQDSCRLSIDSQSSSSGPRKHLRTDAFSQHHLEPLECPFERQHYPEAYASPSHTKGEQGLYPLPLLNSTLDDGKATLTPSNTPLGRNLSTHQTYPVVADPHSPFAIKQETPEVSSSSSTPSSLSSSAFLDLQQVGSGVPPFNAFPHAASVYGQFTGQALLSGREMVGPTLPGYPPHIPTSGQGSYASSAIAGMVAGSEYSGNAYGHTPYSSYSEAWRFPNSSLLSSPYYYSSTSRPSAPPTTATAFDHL", "assay": "PAX8 transcriptional activity inhibition in RMG-I – RMG-I cells, luciferase, cherry-pick, dose response (AID 687027);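 also: luciferase reporter driven by Pax8 target thyroperoxidase promoter measured by SteadyGlo luminescence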", "format": "functional, cell-based"}, "[18]": {"assay": "OVCAR-3 cell viability loss – plate reader, dry powder samples, PAX8 inhibitor project, dose response (AID 743044)", "format": "functional, cell-based"}, "[19]": {"assay": "viability of uninfected HEp-2 cells – cell-based, HTS, cytotoxicity control for RSV inhibitor project, dose response (AID 2410)", "format": "functional", "settings": "human respiratory syncytial virus"}, "[20]": {"assay": "cells"}}, "note": "Active and inactive are the calls of the source.", "data": [{"compound": "COc1ccc(CN(C)C[C@@H]2OCCCC[C@@H](C)Oc3ccc(NC(=O)Nc4ccc(C(F)(F)F)cc4)cc3C(=O)N([C@H](C)CO)C[C@@H]2C)cc1", "values": [{"measurement": "AC50", "setting": "[1]", "result": "2.48 µM (active)"}]}, {"compound": "COc1ccccc1S(=O)(=O)N(C)C[C@@H]1Oc2cc(C#CCC(C)C)ccc2S(=O)(=O)N([C@@H](C)CO)C[C@H]1C", "values": [{"measurement": "AC50", "setting": "[2]", "result": "521 nM (active)"}, {"measurement": "AC50", "setting": "[3]", "result": "331 nM (active)"}, {"measurement": "AC50", "setting": "[4]", "result": "609 nM (active)"}, {"measurement": "AC50", "setting": "[5]", "result": "> 100 µM (inactive)"}, {"measurement": "AC50", "setting": "[6]", "result": "652 nM (active)"}]}, {"compound": "C[C@@H]1CN([C@H](C)CO)C(=O)c2cccc(NC(=O)CCCCCC(=O)Nc3ccccc3N)c2O[C@@H]1CN(C)Cc1ccc(-c2ccccc2)cc1", "values": [{"measurement": "AC50", "setting": "[1]", "result": "4.22 µM (active)"}]}, {"compound": "c1ccc(-c2ccc([C@@H]3[C@@H]4CN(Cc5cccnc5)C[C@H]3N4)cc2)cc1", "values": [{"measurement": "AC50", "setting": "[6]", "result": "472 nM (active)"}, {"measurement": "AC50", "setting": "[7]", "result": "9.31 µM (active)"}]}, {"compound": "C[C@H]1CN([C@@H](C)CO)C(=O)c2cccc(NC(=O)c3nc4ccccc4s3)c2O[C@H]1CN(C)C(=O)Nc1ccc(C(F)(F)F)cc1", "values": [{"measurement": "AC50", "setting": "[1]", "result": "3.86 µM (active)"}]}, {"compound": "COc1cccc(CN2CC3(C2)CN(C(=O)Nc2ccc(F)cc2)[C@@H](CO)c2c3c3ccc(OC)cc3n2C)c1", "values": [{"measurement": "AC50", "setting": "[6]", "result": "2980 nM (active)"}, {"measurement": "AC50", "setting": "[7]", "result": "11.8 µM (active)"}]}, {"compound": "CC1CCCC(C)N1CC(=O)Nc1sc2c(c1C#N)CCC2", "note": "(centres undefined)", "values": [{"measurement": "IC50", "setting": "[8]", "result": "22.5 µM (not active)"}]}, {"compound": "COCCCn1c(Cc2csc(Nc3cccc(Cl)c3)n2)nnc1SCC(=O)OC", "values": [{"measurement": "IC50", "setting": "[8]", "result": "17 µM (not active)"}]}, {"compound": "NCCCC[C@@H]1NC(=O)c2cc([N+](=O)[O-])cc(F)c2NCCCC[C@@H](C(N)=O)NC(=O)[C@H](CCC(N)=O)NC1=O", "values": [{"measurement": "IC50", "setting": "[9]", "result": "> 20 µM (inactive)"}, {"measurement": "AC50", "setting": "[10]", "result": "8.88 µM (active)"}]}, {"compound": "c1ccc(-c2nnc(SCc3nnc(-c4cccs4)o3)o2)cc1", "values": [{"measurement": "IC50", "setting": "[11]", "result": "30.4 µM (active)"}]}, {"compound": "CCOC(=O)N/N=C(/C)c1ccc([N+](=O)[O-])o1", "values": [{"measurement": "AC50", "setting": "[12]", "result": "inconclusive"}, {"measurement": "AC50", "setting": "[13]", "result": "25.1 µM (inconclusive)"}, {"measurement": "EC50", "setting": "[14]", "result": "> 30 µM (not active)"}, {"measurement": "EC50", "setting": "[15]", "result": "589 nM (active)"}]}, {"compound": "COc1cccc(NC(=O)N2[C@H](CO)[C@H](c3ccccc3)[C@H]2CNCC(C)C)c1", "values": [{"measurement": "AC50", "setting": "[2]", "result": "1350 nM (active)"}, {"measurement": "AC50", "setting": "[3]", "result": "1260 nM (active)"}, {"measurement": "AC50", "setting": "[4]", "result": "974 nM (active)"}, {"measurement": "AC50", "setting": "[5]", "result": "85.6 µM (active)"}, {"measurement": "AC50", "setting": "[6]", "result": "1780 nM (active)"}]}, {"compound": "S=C=Nc1cccc(C2(N3CCCCC3)CCCCC2)c1", "note": "[METAPHIT METHANESULFONATE]", "values": [{"measurement": "AC50", "setting": "[16]", "result": "7.36 µM (active)"}]}, {"compound": "CC1CN(C(=O)CCC(=O)NCCCN2CCC(Cc3ccccc3)CC2)c2cc(Cl)ccc2O1", "note": "(centres undefined)", "values": [{"measurement": "IC50", "setting": "[9]", "result": "> 20 µM (inactive)"}, {"measurement": "AC50", "setting": "[16]", "result": "16.2 µM (active)"}]}, {"compound": "C[N+]1(CC(=O)NNc2c3ccccc3nc3ccccc23)CCOCC1", "values": [{"measurement": "AC50", "setting": "[10]", "result": "2.83 µM (active)"}]}, {"compound": "COc1ccc(S(=O)(=O)Nc2ccc3c(c2)C(=O)N([C@H](C)CO)C[C@@H](C)[C@@H](CN(C)Cc2ccc(C(F)(F)F)cc2)OCCCC[C@H](C)O3)cc1", "values": [{"measurement": "AC50", "setting": "[17]", "result": "3.43 µM (active)"}, {"measurement": "AC50", "setting": "[18]", "result": "5.6 µM (active)"}]}, {"compound": "N#Cc1nc(-c2cccc3ccccc23)oc1N", "values": [{"measurement": "CC50", "setting": "[19]", "result": "> 50 µM (active)"}, {"measurement": "IC50", "setting": "[20]", "result": "23.2 µM (active)"}]}]}
